Measured values published in patent US8273774B2, “Phenoxypyridinylamide compounds” (AstraZeneca AB, priority 2008, dated 2012).

Target: recombinant Human Phosphodiesterase B2 (PDE4B2) (Homo sapiens, UniProt Q07343)
Assay: Human Phosphodiesterase B2 Radiometric Assay
Type: biochemical
Details: 0.1 μg/mL recombinant PDE4B2; preincubated at 30 C for 30 min; [3H]cyclic AMP 8 nM, stopped after 20 min; yttrium silicate SPA beads; read-out: PDE4B2 pIC50 (converted)
Procedure, shortened: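 Compounds preincubated 30 min at 30 C with 0.1 μg/mL recombinant PDE4B2 in 50 mM HEPES pH 7.5, 8.3 mM MgCl2, 1.7 mM EGTA, 0.01% Brij 35.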

recombinant Human Phosphodiesterase B2 (PDE4B2), sequence (Q07343 1-564 isoform Q07343-2): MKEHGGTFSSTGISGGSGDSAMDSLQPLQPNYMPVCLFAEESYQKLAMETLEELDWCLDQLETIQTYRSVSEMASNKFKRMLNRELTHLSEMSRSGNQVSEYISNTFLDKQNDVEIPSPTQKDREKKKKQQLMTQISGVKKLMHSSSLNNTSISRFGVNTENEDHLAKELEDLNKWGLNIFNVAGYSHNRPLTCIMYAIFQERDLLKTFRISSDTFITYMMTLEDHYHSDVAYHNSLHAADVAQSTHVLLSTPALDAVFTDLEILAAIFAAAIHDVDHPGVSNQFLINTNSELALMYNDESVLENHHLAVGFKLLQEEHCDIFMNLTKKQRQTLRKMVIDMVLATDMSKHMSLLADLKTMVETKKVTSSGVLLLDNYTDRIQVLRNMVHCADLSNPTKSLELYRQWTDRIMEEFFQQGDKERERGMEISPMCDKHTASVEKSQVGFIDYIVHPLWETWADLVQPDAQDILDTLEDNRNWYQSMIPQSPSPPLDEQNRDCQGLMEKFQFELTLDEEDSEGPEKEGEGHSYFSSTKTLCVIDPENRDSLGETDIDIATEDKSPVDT

| IC50 [nM] | SMILES |
| --- | --- |
| 0.02 | Cc1nc(C(=O)N[C@H]2CC[C@@H](NC(=O)c3cc(F)cnc3Oc3cccc(-c4ccc(O)cc4CN4CCCOCC4)c3)CC2)cs1 [Example 15, N-((1s,4s)-4-(2-(2′-((1,4-oxazepan-4-yl)methyl)-4′-hydroxybiphenyl-3-yloxy)-5-fluoronicotinamido)cyclohexyl)-2-methylthiazole-4-carboxamide] |
| 0.2 | CC(C)c1ncc(C(=O)N[C@H]2CC[C@@H](NC(=O)c3cc(F)cnc3Oc3cccc(-c4ccc(O)cc4CN4CCOCC4)c3)CC2)s1 [Example 37, N-((1s,4s)-4-(5-fluoro-2-(4′-hydroxy-2′-(morpholinomethyl)biphenyl-3-yloxy)nicotinamido)cyclohexyl)-2-isopropylthiazole-5-carboxamide] |
| 3.16 | Cc1nc(C(=O)N[C@H]2CC[C@@H](NC(=O)c3cc(F)cnc3Oc3cccc(-c4ccc(O)cc4CN4CCN(C(C)C)CC4)c3)CC2)cs1 [Example 25, N-((1s,4s)-4-(5-fluoro-2-(4′-hydroxy-2′-((4-isopropylpiperazin-1-yl)methyl)biphenyl-3-yloxy)nicotinamido)cyclohexyl)-2-methylthiazole-4-carboxamide] |

Continued, compound first:

| SMILES | IC50 [nM] |
| --- | --- |
| Cc1nc(C(=O)N[C@H]2CC[C@@H](NC(=O)c3cc(F)cnc3Oc3cccc(-c4ccc(CCN5CCC(N6CCCC6)CC5)cc4)c3)CC2)cs1 [Example 112, N-((1s,4s)-4-(5-fluoro-2-(4′-(2-(4-(pyrrolidin-1-yl)piperidin-1-yl)ethyl)biphenyl-3-yloxy)nicotinamido)cyclohexyl)-2-methylthiazole-4-carboxamide] | 0.0398 |
| O=C(N[C@H]1CC[C@@H](NC(=O)c2cc(F)cnc2Oc2cccc(-c3ccc(CCCNCCCO)cc3)c2)CC1)c1cc2ccccn2n1 [Example 159, N-((1s,4s)-4-(5-Fluoro-2-(4′-(3-(3-hydroxypropylamino)propyl)biphenyl-3-yloxy)nicotinamido)cyclohexyl)pyrazolo[1,5-a]pyridine-2-carboxamide] | 0.0501 |
| Cc1cc(C(=O)N[C@H]2CC[C@@H](NC(=O)c3cc(F)cnc3Oc3cccc(-c4ccc(CCN5CCN(C(C)C)CC5)cc4)c3)CC2)nn1C [Example 83, N-((1s,4s)-4-(1,5-dimethyl-1H-pyrazole-3-carboxamido)cyclohexyl)-5-fluoro-2-(4′-(2-(4-isopropylpiperazin-1-yl)ethyl)biphenyl-3-yloxy)nicotinamide] | 0.0251 |
| C[C@@H]1CN(CCCc2ccc(-c3cccc(Oc4ncc(F)cc4C(=O)N[C@H]4CC[C@@H](NC(=O)c5ccn(C)n5)CC4)c3)cc2)C[C@H](C)N1 [Example 165, 2-(4′-(3-((3S,5R)-3,5-Dimethylpiperazin-1-yl)propyl)biphenyl-3-yloxy)-5-fluoro-N-((1s,4s)-4-(1-methyl-1H-pyrazole-3-carboxamido)cyclohexyl)nicotinamide] | 0.0631 |
| C[C@@H]1CN(Cc2ccc(-c3cccc(Oc4ncc(F)cc4C(=O)N[C@H]4CC[C@@H](NC(=O)c5ccc6ccccc6n5)CC4)c3)c(CN3CCOCC3)c2)C[C@H](C)N1 [Example 147, N-((1s,4s)-4-(2-(4′-(((3S,5R)-3,5-dimethylpiperazin-1-yl)methyl)-2′-(morpholinomethyl)biphenyl-3-yloxy)-5-fluoronicotinamido)cyclohexyl)quinoline-2-carboxamide] | 0.0501 |
| C[C@@H]1CN(CCCc2ccc(-c3cccc(Oc4ncc(F)cc4C(=O)N[C@H]4CC[C@@H](NC(=O)c5cscn5)CC4)c3)cc2)C[C@H](C)N1 [Example 155, N-((1s,4s)-4-(2-(4′-(3-((3S,5R)-3,5-dimethylpiperazin-1-yl)propyl)biphenyl-3-yloxy)-5-fluoronicotinamido)cyclohexyl)thiazole-4-carboxamide] | 0.0398 |
| O=C(N[C@H]1CC[C@@H](NC(=O)c2cc(F)cnc2Oc2cccc(-c3ccc(O)cc3CN3CCOCC3)c2)CC1)c1ccccc1O [Example 38, 5-fluoro-2-(4′-hydroxy-2′-(morpholinomethyl)biphenyl-3-yloxy)-N-((1s,4s)-4-(2-hydroxybenzamido)cyclohexyl)nicotinamide] | 0.0398 |
